From US6274715A, “Tricyclic erythromycin derivatives” (priority 1997, dated 2001)
≈ marks a conversion by molar mass, not a printed value.

Key:
Type in all cases: cell-based
[1] = system: STAPHYLOCOCCUS AUREUS ATCC 6538P; assay: In vitro antibacterial activity, MIC, BHI agar dilution; details: S. aureus ATCC 6538P, 35-37° C., 20 to 24 hours, unit assumed
[2] = system: STAPHYLOCOCCUS AUREUS A5177; assay: as above; details: S. aureus A5177, unit assumed
[3] = system: STAPHYLOCOCCUS AUREUS A-5278; assay: as above; details: S. aureus A-5278, unit assumed
[4] = system: STAPHYLOCOCCUS AUREUS CMX 642A; assay: as above; details: S. aureus CMX 642A, unit assumed
[5] = system: STAPHYLOCOCCUS AUREUS NCTC10649M; assay: as above; details: S. aureus NCTC10649M, unit assumed
[6] = system: STAPHYLOCOCCUS AUREUS CMX 553; assay: as above; details: S. aureus CMX 553, unit assumed
[7] = system: STAPHYLOCOCCUS AUREUS 1775; assay: as above; details: S. aureus 1775, unit assumed
[8] = system: STAPHYLOCOCCUS EPIDERMIDIS 3519; details: S. epidermidis 3519; BHI agar; unit assumed
EN[…] ATCC 8043 = assay: In vitro antibacterial activity, MIC, BHI agar dilution; details: E. faecium ATCC 8043, unit assumed
Procedure, shortened: (§1)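 BHI agar dilution, 12 plates; inoculum 1:100 (1:10 slow-growing strains), Steers replicator; 35-37° C, 20-24 h. MIC = lowest conc. with no growth/slight haze/sparse colonies vs growth control, visual read. Erythromycin A reference plate.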

M[…] ATCC 4698 = assay: as above; details: M. luteus ATCC 4698, unit assumed
Procedure, shortened: as §1

M[…] ATCC 9341 = assay: as above; details: M. luteus ATCC 9341, unit assumed
Procedure, shortened: as §1

STR[…] 508 = assay: as above; details: S. agalactiae CMX 508, unit assumed
Procedure, shortened: as §1

[9] = system: STREPTOCOCCUS BOVIS A-5169; assay: as above; details: S. bovis A-5169, unit assumed
[10] = system: STREPTOCOCCUS PYOGENES EES61; assay: as above; details: S. pyogenes EES61, unit assumed
[11] = system: STREPTOCOCCUS PYOGENES 930; assay: as above; details: S. pyogenes 930, unit assumed
[12] = system: STREPTOCOCCUS PYOGENES PIU 2548; assay: as above; details: S. pyogenes PIU 2548, unit assumed
ESCHERICHIA COLI JUHL = details: E. coli JUHL; BHI agar; unit assumed
ESCHERICHIA COLI SS = assay: In vitro antibacterial activity, MIC, BHI agar dilution; details: E. coli SS, unit assumed
ESCHERICHIA COLI DC-2 = assay: as above; details: E. coli DC-2, unit assumed
ESCHERICHIA COLI H560 = assay: as above; details: E. coli H560, unit assumed
ESCHERICHIA COLI KNK 437 = details: E. coli KNK 437; BHI agar; unit assumed
[13] = system: ENTEROBACTER AEROGENES ATCC 13048; assay: In vitro antibacterial activity, MIC, BHI agar dilution; details: E. aerogenes ATCC 13048, unit assumed
[14] = system: KLEBSIELLA PNEUMONIAE ATCC 8045; assay: as above; details: K. pneumoniae ATCC 8045, unit assumed
[15] = system: PROVIDENCIA STUARTII CMX 640; details: P. stuartii CMX 640; BHI agar; unit assumed
[16] = system: PSEUDOMONAS AERUGINOSA BMH10; assay: In vitro antibacterial activity, MIC, BHI agar dilution; details: P. aeruginosa BMH10, unit assumed
[17] = system: PSEUDOMONAS AERUGINOSA 5007; assay: as above; details: P. aeruginosa 5007, unit assumed
[18] = system: PSEUDOMONAS AERUGINOSA K799/WT; assay: as above; details: P. aeruginosa K799/WT, unit assumed
[19] = system: PSEUDOMONAS AERUGINOSA K799/61; assay: as above; details: P. aeruginosa K799/61, unit assumed
PSEUDOMONAS CEPACIA 296I = assay: as above; details: P. cepacia 296I, unit assumed
[20] = system: PSEUDOMONAS AERUGINOSA DPHD-5263; assay: as above; details: P. aeruginosa DPHD-5263, unit assumed
[21] = system: PSEUDOMONAS AERUGINOSA DPHD-2862; assay: as above; details: P. aeruginosa DPHD-2862, unit assumed
CANDIDA ALBICANS CCH 442 = assay: as above; details: C. albicans CCH 442, unit assumed
[22] = system: MYCOBACTERIUM SMEGMATIS ATCC 114; assay: as above; details: M. smegmatis ATCC 114, unit assumed

| SMILES | MIC [1] [µg/mL] | MIC [2] [µg/mL] | MIC [3] [µg/mL] | MIC [4] [µg/mL] | MIC [5] [µg/mL] | MIC [6] [µg/mL] | MIC [7] [µg/mL] | MIC [8] [µg/mL] | MIC (EN[…] ATCC 8043) [µg/mL] | MIC (M[…] ATCC 4698) [µg/mL] | MIC (M[…] ATCC 9341) [µg/mL] | MIC (STR[…] 508) [µg/mL] | MIC [9] [µg/mL] | MIC [10] [µg/mL] | MIC [11] [µg/mL] | MIC [12] [µg/mL] | MIC (ESCHERICHIA COLI JUHL) [µg/mL] | MIC (ESCHERICHIA COLI SS) [µg/mL] | MIC (ESCHERICHIA COLI DC-2) [µg/mL] | MIC (ESCHERICHIA COLI H560) [µg/mL] | further results |
| --- | --- | --- | --- | --- | --- | --- | --- | --- | --- | --- | --- | --- | --- | --- | --- | --- | --- | --- | --- | --- | --- |
| CC[C@H]1OC(=O)[C@H](C)C(=O)[C@H](C)[C@@H](O[C@@H]2O[C@H](C)C[C@H](N(C)C)[C@H]2O)[C@](C)(OC)C[C@@H](C)C2=NC3CN(CC(OC)OC)CC3N3C(=O)O[C@@]1(C)[C@H]3[C@H]2C (stereo partly drawn) [Example 127] | 3.1 (≈ 4.04 µM) | 1.56 (≈ 2.03 µM) | > 100 | 3.1 (≈ 4.04 µM) | 1.56 (≈ 2.03 µM) | 1.56 (≈ 2.03 µM) | > 100 | 1.56 (≈ 2.03 µM) | 0.39 (≈ 0.508 µM) | 1.56 (≈ 2.03 µM) | 0.39 (≈ 0.508 µM) | 0.2 (≈ 0.261 µM) | 0.1 (≈ 0.13 µM) | 0.1 (≈ 0.13 µM) | > 100 | 1.56 (≈ 2.03 µM) | > 100 | 1.56 (≈ 2.03 µM) | > 100 | > 100 | MIC (ESCHERICHIA COLI KNK 437): > 100 µg/mL; MIC [13]: > 100 µg/mL; MIC [14]: > 100 µg/mL; MIC [15]: > 100 µg/mL; MIC [16]: > 100 µg/mL; MIC [17]: > 100 µg/mL; MIC [18]: > 100 µg/mL; MIC [19]: 3.1 µg/mL (≈ 4.04 µM); MIC (PSEUDOMONAS CEPACIA 296I): > 100 µg/mL; MIC [20]: > 100 µg/mL; MIC [21]: > 100 µg/mL; MIC (CANDIDA ALBICANS CCH 442): > 100 µg/mL; MIC [22]: 25 µg/mL (≈ 32.6 µM) |
| CC[C@H]1OC(=O)[C@H](C)C(=O)[C@H](C)[C@@H](O[C@@H]2O[C@H](C)C[C@H](N(C)C)[C@H]2O)[C@](C)(OC)C[C@@H](C)C2=NCC(CN(C)Cc3ccccc3)N3C(=O)O[C@@]1(C)[C@H]3[C@H]2C (stereo partly drawn) [Example 132] | 0.39 (≈ 0.506 µM) | 0.39 (≈ 0.506 µM) | 100 (≈ 130 µM) | 0.39 (≈ 0.506 µM) | 0.39 (≈ 0.506 µM) | 0.39 (≈ 0.506 µM) | 100 (≈ 130 µM) | 0.39 (≈ 0.506 µM) | 0.1 (≈ 0.13 µM) | 0.2 (≈ 0.259 µM) | 0.05 (≈ 0.0649 µM) | 0.02 (≈ 0.0259 µM) | 0.01 (≈ 0.013 µM) | 0.02 (≈ 0.0259 µM) | 50 (≈ 64.9 µM) | 0.78 (≈ 1.01 µM) | 100 (≈ 130 µM) | 0.78 (≈ 1.01 µM) | 100 (≈ 130 µM) | 50 (≈ 64.9 µM) | MIC (ESCHERICHIA COLI KNK 437): > 100 µg/mL; MIC [13]: > 100 µg/mL; MIC [14]: > 100 µg/mL; MIC [15]: > 100 µg/mL; MIC [16]: > 100 µg/mL; MIC [17]: > 100 µg/mL; MIC [18]: 100 µg/mL (≈ 130 µM); MIC [19]: 1.56 µg/mL (≈ 2.02 µM); MIC (PSEUDOMONAS CEPACIA 296I): > 100 µg/mL; MIC [20]: > 100 µg/mL; MIC [21]: > 100 µg/mL; MIC (CANDIDA ALBICANS CCH 442): > 100 µg/mL; MIC [22]: 0.78 µg/mL (≈ 1.01 µM) |
| CCC1OC(=O)C(C)C(=O)C(C)C(OC2OC(C)CC(N(C)C)C2O)C(C)(OC)CC(C)C2=NCC(C)(CN(C)Cc3ccccc3)N3C(=O)OC1(C)C3C2C (stereo not drawn) [Example 134] | 0.78 (≈ 0.994 µM) | 0.78 (≈ 0.994 µM) | > 100 | 0.78 (≈ 0.994 µM) | 0.78 (≈ 0.994 µM) | 0.78 (≈ 0.994 µM) | > 100 | 0.78 (≈ 0.994 µM) | 0.1 (≈ 0.127 µM) | 0.78 (≈ 0.994 µM) | 0.05 (≈ 0.0637 µM) | 0.02 (≈ 0.0255 µM) | 0.01 (≈ 0.0127 µM) | 0.02 (≈ 0.0255 µM) | > 100 | 0.78 (≈ 0.994 µM) | 100 (≈ 127 µM) | 1.56 (≈ 1.99 µM) | 100 (≈ 127 µM) | 50 (≈ 63.7 µM) | MIC (ESCHERICHIA COLI KNK 437): > 100 µg/mL; MIC [13]: > 100 µg/mL; MIC [14]: > 100 µg/mL; MIC [15]: > 100 µg/mL; MIC [16]: > 100 µg/mL; MIC [17]: > 100 µg/mL; MIC [18]: > 100 µg/mL; MIC [19]: 1.56 µg/mL (≈ 1.99 µM); MIC (PSEUDOMONAS CEPACIA 296I): > 100 µg/mL; MIC [20]: > 100 µg/mL; MIC [21]: > 100 µg/mL; MIC (CANDIDA ALBICANS CCH 442): > 100 µg/mL; MIC [22]: 0.78 µg/mL (≈ 0.994 µM) |
